US10980769B2, “Tiglien-3-one derivatives” (QBIOTICS PTY LTD, priority 2005, dated 2021)
Entries after “also recorded” stand apart in the source; their conditions may differ.

What was measured:
Haemonchus contortus = experiment: NemaTOX (Ne) anthelmintic larval development bioassay
Experimental: NemaTOX (alternatively referred to herein as Ne) is an anthelmintic bioassay, applicable to all parasitic nematodes with free-living life cycle stages, and can be used as a screen to detect activity and define the species spectrum of compounds against parasitic nematodes and examine the impact of pre-existing resistance to other anthelmintic classes on potency. Haemonchus contortus was utilised for this assay.
The effect on larval development was determined in this assay by the method described by Gill et al. (1995) Int. J. Parasitol. 25: 463-470. Briefly, in this assay nematode eggs were applied to the surface of an agar matrix containing the test sample and allowed to develop through to the L3, infective stage (6 days). At this time the stage of larval development reached and any unusual features (deformity, paralysis, toxicity) were noted by microscopic examination.

[1] = system: NS1 murine myeloma cell line; experiment: CyTOX (Cy) chromogenic cytotoxicity bioassay; format: cell-based
Excerpt: CyTOX (alternatively referred to herein as Cy) is a microtitre plate bioassay use to identify potential antitumour actives. CyTOX is a chromogenic bioassay with broad application to a wide range of tumour and non-tumour cell lines.
CyTOX features a liquid media into which the test compound has been incorporated together with a novel chromogen. As the cells grow and divide the chromogen is metabolised from purple in a single step process to a colourless metabolite. CyTOX was undertaken using NS1 murine myeloma cell line as a guide to mammalian cell toxicity.
Briefly, in CyTOX the cells were applied to the media containing the test chemical and allowed to grow for 72 hours. The assay was monitored at 24, 48 and 72 hours and the active wells identified.

D04 melanoma = experiment: Growth inhibition of cultured cells; format: cell-based; conditions: human melanoma DO4
Experimental: (§1) Briefly, a range of tumour cells including mouse melanoma, human melanoma, mouse squamous cell carcinoma, human breast, human colon, human leukemia and human lung and normal human cells including normal human fibroblasts were seeded at 2-5,000 per microtitre well (96-well plate) in 10% FCS-RPMI 1640 culture medium, treated, and allowed to grow until the controls were nearly confluent (5-6 days). The wells were then washed twice with PBS, fix with ethanol for a minimum of 5 minutes and washed with water. SRB solution (50 μL of 0.4% in 1% acetic acid) was added and left at room temperature for a minimum of 15 minutes. The plate was washed rapidly with tap water and then twice with 1% acetic acid. After addition of 100 μL/well of 10 mM Tris base (unbuffered, pH>9), plates were left for a minimum of 5 minutes, then the absorbance was read at 564 nm on the ELISA reader, with a 3 second prior shaking. After subtraction of a blank (wells with no cells, absorbance typically about 0.04), growth inhibition was calculated as % of the untreated control and plotted against dose.
(§2) Briefly, a suspension of a range of tumour cells including mouse melanoma, human melanoma, mouse squamous cell carcinoma, human breast, human colon, human leukemia and human lung and normal human cells including normal human fibroblasts were seeded into round-bottom microtitre plates in 10% FCS-RPMI 1640 culture medium, treated and allowed to grow for 5-6 days. To measure cell growth, 20 μL of a combined MTS/PMS solution (Promega Cell ProliferationAssay Kit Cat #G5430) was added to each well of the 96 well assay plate. After 1-4 hours the plates were placed in the ELISA plate reader and the absorbance read at 490 nm. After subtraction of a blank (wells with no cells, absorbance typically about 0.4), growth inhibition was calculated as % of the untreated control and plotted against dose.
(§3) For growth inhibition assays, cells (2000-5000/well) were seeded in 96-well plates in duplicate, treated with drug next day and allowed to grow for a further 5-6 days. The plates were then washed in PBS (phosphate buffered saline, pH 7.2), fixed with ethanol and stained by addition of 50 μL 0.4% SRB (sulforhodamine) in 1% acetic acid. The plate was left at room temperature for a minimum of 15 minutes, then washed rapidly with tap water and then twice with 1% acetic acid. After addition of 100 μL/well of 10 mM Tris base (unbuffered, pH>9), plates were left for a minimum of 5 minutes, then the absorbance was read at 564 nm on the ELISA reader, with a 3 second prior shaking. After subtraction of a blank (wells with no cells, typically about 0.04), growth inhibition was calculated as % of the untreated control and plotted against dose.

HOP62 lung = experiment: Growth inhibition of cultured cells; format: cell-based; conditions: human lung H0P62
Experimental: as §1, §2, §3

human breast MCF-7 = experiment: Growth inhibition of cultured cells; format: cell-based; conditions: human breast CF-7
Experimental: as §1, §2, §3

human colon Colo205 = experiment: Growth inhibition of cultured cells; format: cell-based
Experimental: as §1, §2, §3

human leukemia K562 = experiment: Growth inhibition of cultured cells; format: cell-based
Experimental: as §1, §2, §3

human leukemia U937 = experiment: Growth inhibition of cultured cells; format: cell-based
Experimental: as §1, §2, §3

human lung A549 = experiment: Growth inhibition of cultured cells; format: cell-based
Experimental: as §1, §2, §3

human melanoma MM127 = experiment: Growth inhibition of cultured cells; format: cell-based
Experimental: as §1, §2, §3

human melanoma MM96L = experiment: Growth inhibition of cultured cells; format: cell-based
Experimental: as §1, §2, §3

[2] = system: normal human fibroblasts (NFF); experiment: Growth inhibition of cultured cells; format: cell-based
Experimental: as §1, §2, §3

MCF-7 = experiment: Cell scattering of cultured cells; format: cell-based, human
[3] = system: human nasopharyngeal tumour; experiment: Intralesional injection of human nasopharyngeal tumour in SCID-NOD mice; format: in vivo, mouse; conditions: up to 3 injections, total of 25 μg in 25% propylene glycol-saline, 2 mice
Experimental: A second mouse model was tested in a pilot study, involving an 8 mm diameter human nasopharyngeal tumour implanted and growing subcutaneously on the neck of a SCID-NOD mouse. Up to 3 injections of EBI-46 (total of 25 μg in 75 μL25% propylene glycol-saline) were made into the NPC tumours of 2 mice.

Stability = format: physicochemical
Excerpt: This instability was observed upon nitrogen evaporation but not while in acetonitrile/water solution at room temperature or on vacuum evaporation. To avoid decomposition the equivalent four bands of active metabolites from the second preparative HPLC were individually back extracted in the ethyl acetate and evaporated under vacuum. Analytical HPLC of these samples confirmed minimal decomposition.
[…] The structure has no readily reactive groups which might otherwise confer instability.

[4] = Table 6a, last well with activity, real value may be lower

With `C/C=C(\C)C(=O)OC1C(C)C2(O)C(C3OC3(CO)C(O)C3(O)C(=O)C(C)=CC32)C2C(C)(C)C12OC(=O)C(C)CC` (stereo not shown) [EBI-46, 12-tigloyl-13-(2-methylbutanoyl)-6,7-epoxy-4,5,9,12,13,20-hexahydroxy-1-tiglian-3-one] the “Ne Titre” value (Haemonchus contortus) was 2, the “Ne LD99” value (Haemonchus contortus; [4]) was 31 pg/mL and the “Cy Titre” value [1] was 8. For the same molecule, the “Cy LD99” value [1, 4] was 7.8 pg/mL, the “Concentration of EBI-46 at which growth inhibition was observed” value (D04 melanoma) was under 100 ng/mL and the “Concentration of EBI-46 at which growth inhibition was observed” value (HOP62 lung) was under 100 ng/mL. The “Concentration of EBI-46 at which growth inhibition was observed” value (human breast MCF-7) was under 100 ng/mL, the “Concentration of EBI-46 at which growth inhibition was observed” value (human colon Colo205) was under 100 ng/mL and the “Concentration of EBI-46 at which growth inhibition was observed” value (human leukemia K562) was under 100 ng/mL. For the same molecule, the “Concentration of EBI-46 at which growth inhibition was observed” value (human leukemia U937) was under 100 ng/mL, the “Concentration of EBI-46 at which growth inhibition was observed” value (human lung A549) was under 100 ng/mL and the “Concentration of EBI-46 at which growth inhibition was observed” value (human melanoma MM127) was under 100 ng/mL. For the same molecule, the “Concentration of EBI-46 at which growth inhibition was observed” value (human melanoma MM96L) was “=/<2 μg/mL”, the “Concentration of EBI-46 at which growth inhibition was observed” value [2] was “None observed at 10 μg/mL” and the “scattering of MCF-7 cells” value (MCF-7) was “cell scattering”. For the same molecule, the tumour outcome [3] was “no sign of residual tumour; also recorded: delayed but not ablated”, the stability of solution (Stability; 25% propylene glycol-saline at 4° C.) was “stable for weeks” and the “stability by HPLC” value (Stability; PEG 400 containing 10% ethanol held at 37° C.) was “confirmed”. For the same molecule, the stability of solutions (Stability; in ethanol, 4° C. for 4 weeks) was “retain bioactivity”.
